Test results taken from EP0104070A2, “Fungicidal N-phenylcarbamates” (priority 1982, dated 1984).
Read-outs that look alike come from different tables or passages of the source.

Legend:
[1] = system: drug-resistant strain of Cercospora beticola; details: in Beta vulgaris, 240 h, read-out: Prevention value when inoculated with drug-resistant strain (%)
Description: (§2) The disease severity was calculated according to the following equation: [formula]
(§3) The prevention value was calculated according to the following equation: [formula]
(§4) Preventive effect on cercospora leaf spot of sugarbeet (Cercospora beticola):-A flower pot of 90 ml volume was filled with sandy soil, and seeds of sugarbeet (var: Detroit dark red) were sowed therein. Cultivation was carried out in a greenhouse for 20 days. Onto the resulting seedlings, the test compound formulated in emulsifiable concentrate or wettable powder and diluted with water was sprayed at a rate of 10 ml per pot. […] The pot was covered with a polyvinyl chloride sheet to make a condition of high humidity, and cultivation was continued in the greenhouse for 10 days.

[2] = system: drug-sensitive strain of Cercospora beticola; details: in Beta vulgaris, 240 h, read-out: Prevention value when inoculated with drug-sensitive strain (%)
Description: as §2, §3, §4

[3] = system: drug-resistant strain of Sphaerotheca fuliginea; details: Podosphaera fuliginea, in Cucumis sativus, 240 h, read-out: Prevention value when inoculated with drug-resistant strain (%)
Description: (§5) Protective activity test on powdery mildew of cucumber (Sphaerotheca fuliginea):-A flower pot of 90 ml volume was filed with sandy soil, and seeds of cucumber (var: Sagami-hanjiro) were sowed therein. Cultivation was carried out in a greenhouse for 8 days. Onto the resulting seedlings having cotyledons, the test compound formulated in emulsifiable concentrate or wettable powder and diluted with water was sprayed at a rate of 10 ml per pot. […] Ten days thereafter, the infectious state of the plants was observed.
as §2, §3

[4] = system: apple (var: Kogyoku); experiment: Phytotoxicity to crop plants (Experiment 9), apple; assay type: in vivo; design: key: -: No abnormality; +: Abnormality due to phytotoxicity observed in a part of crop plants; ++: Abnormality due to phytotoxicity observed in entire crop plants; +++: Crop plants withered due to phytotoxicity
Description: (§1) Phytotoxicity to crop plants:-

[5] = system: wheat (var: Norin No. 61); experiment: Phytotoxicity to crop plants (Experiment 9), wheat; assay type: in vivo; design: key: -: No abnormality; +: Abnormality due to phytotoxicity observed in a part of crop plants; ++: Abnormality due to phytotoxicity observed in entire crop plants; +++: Crop plants withered due to phytotoxicity
Description: as §1

[6] = system: peanut (var: Chiba hanryusei); experiment: Phytotoxicity to crop plants (Experiment 9), peanut; assay type: in vivo; design: key: -: No abnormality; +: Abnormality due to phytotoxicity observed in a part of crop plants; ++: Abnormality due to phytotoxicity observed in entire crop plants; +++: Crop plants withered due to phytotoxicity; details: spray, 1000 ppm active ingredient, 10 days
Description: as §1

[7] = system: drug-sensitive strain of Sphaerotheca fuliginea; details: Podosphaera fuliginea, in Cucumis sativus, 240 h, read-out: Prevention value when inoculated with drug-sensitive strain (%)
Description: as §5, §2, §3

[8] = system: drug-sensitive strain of Penicillium italicum; experiment: Preventive effect on green mold of orange (Experiment 7), drug-sensitive strain; details: orange fruits immersed for 1 minute, 200 ppm active ingredient, 24 days
[9] = system: drug-resistant strain of Mycosphaerella melonis; details: cucumber seedlings, spray, 200 ppm active ingredient, 25°C for 4 days
Description: as §2, §3
(§6) Preventive effect on gummy stem blight of cucumber (Mycosphaerella melonis):-Plastic pots of 90 ml volume was filled with sandy soil, and seeds of cucumber (var: Sagami-hanjiro) were sowed therein. Cultivation was carried out in a greenhouse for 8 days to obtain cucumber seedlings expanding cotyledons. Onto the resulting seedlings, the test compound formulated in emulsifiable concentrate or wettable powder and diluted with water was sprayed at a rate of 10 ml per pot. […] After the plants were infected by incubating under high humidity at 25°C for 4 days, the rates of disease severity were observed.

[10] = system: drug-resistant strain of Cercospora arachidicola; details: peanut seedlings, spray, 10 days
Description: as §2, §3
(§7) Preventive effect on brown leaf-spot of peanut (Cercospora arachidicola):-
(§8) A plastic pot of 90 ml volume was filled with sandy soil, and seeds of peanut (var: Chiba hanryusei) were sowed therein. Cultivation was carried out in a greenhouse for 14 days. Onto the resulting seedlings, the test compound formulated in emulsifiable concentrate or wettable powder and diluted with water was sprayed at a rate of 10 ml per pot. […] The resulting plants were covered with a polyvinyl chloride sheet to make a humide condition and cultivated in the greenhouse for 10 days.

[11] = system: drug-sensitive strain of Venturia nashicola; experiment: Preventive effect on scab of pear (Experiment 3), drug-sensitive strain; details: pear seedlings, spray, 200 ppm active ingredient
Description: as §2, §3
(§9) Preventive effect on scab of pear (Venturia nashicola):-
(§10) A plastic pot of 90 ml volume was filled with sandy soil, and seeds of pear (var: Chojuro) were sowed therein. Cultivation was carried out in a greenhouse for 20 days. Onto the resulting seedlings, the test compound formulated in emulsifiable concentrate or wettable powder and diluted with water was sprayed at a rate of 10 ml per pot. […] The resulting plants were placed at 20°C under a condition of high humidity for 3 days and then at 20°C under irradiation with a fluorescent lamp for 20 days.

[12] = system: drug-sensitive strain of Cercospora arachidicola; details: peanut seedlings, spray, 10 days
Description: as §2, §3, §7, §8

[13] = system: drug-sensitive strain of Mycosphaerella melonis; details: cucumber seedlings, spray, 200 ppm active ingredient, 25°C for 4 days
Description: as §2, §3, §6

[14] = system: drug-resistant strain of Venturia nashicola; experiment: Preventive effect on scab of pear (Experiment 3), drug-resistant strain; details: pear seedlings, spray, 200 ppm active ingredient
Description: as §2, §3, §9, §10

[15] = system: drug-resistant strain of Penicillium italicum; experiment: Preventive effect on green mold of orange (Experiment 7), drug-resistant strain; details: orange fruits immersed for 1 minute, 200 ppm active ingredient, 24 days
[16] = system: drug-sensitive strain of Botrytis cinerea; experiment: Preventive effect on gray mold of cucumber (Experiment 5), drug-sensitive strain; details: cucumber seedlings, spray, mycelial disks, 20°C for 3 days
Description: as §2, §3
(§11) Preventive effect on gray mold of cucumber (Botrytis cinerea):-Plastic pots of 90 ml volume was filled with sandy soil, and seeds of cucumber (var: Sagami-hanjiro) were sowed therein. Cultivation was carried out in a greenhouse for 8 days to obtain cucumber seedlings expanding cotyledons. Onto the resulting seedlings, the test compound formulated in emulsifiable concentrate or wettable powder and diluted with water was sprayed at a rate of 10 ml per pot. […] After the plants were infected by incubating under high humidity at 20°C for 3 days, the rates of disease severity were observed.

[17] = system: drug-resistant strain of Botrytis cinerea; experiment: Preventive effect on gray mold of cucumber (Experiment 5), drug-resistant strain; details: cucumber seedlings, spray, mycelial disks, 20°C for 3 days
Description: as §2, §3, §11

[18] = system: Pyricularia oryzae; assay type: in vivo
[19] = spray, 1000 ppm active ingredient, 10 days

| SMILES | pest or weed control at 200 ppm [1] | pest or weed control at 200 ppm [2] | pest or weed control at 200 ppm [3] | Phytotoxicity Peanut [6] | pest or weed control at 200 ppm [7] | Prevention value when inoculated with drug-resistant strain (%) [9] | Prevention value when inoculated with drug-sensitive strain (%) [13] | Prevention value when inoculated with drug-sensitive strain (%) ([16]; 200 ppm active ingredient) | Prevention value when inoculated with drug-resistant strain (%) ([17]; 200 ppm active ingredient) | Phytotoxicity Apple [4, 19] | Phytotoxicity Wheat [5, 19] | also measured |
| --- | --- | --- | --- | --- | --- | --- | --- | --- | --- | --- | --- | --- |
| O=C(Nc1cccc(Cl)c1)OCC#CCCl | 34% | 0% | 25% | ++ | 0% |  |  |  |  |  |  | Phytotoxicity Apple ([4]; in vivo): ++; Phytotoxicity Wheat ([5]; in vivo): - |
| CCCCNC(=O)n1c(NC(=O)OC)nc2ccccc21 [Benomyl, methyl 1-(butylcarbamoyl)benzimidazol-2-ylcarba-mate] | 0% | 100% | 0% |  | 100% | 0% | 100% | 100% | 0% |  |  | Prevention value when inoculated with drug-sensitive strain (%) [8]: 100%; Prevention value when inoculated with drug-resistant strain (%) ([10]; 200 ppm active ingredient): 0%; Prevention value when inoculated with drug-sensitive strain (%) [11]: 100%; Prevention value when inoculated with drug-sensitive strain (%) ([12]; 200 ppm active ingredient): 100%; Prevention value when inoculated with drug-resistant strain (%) [14]: 0%; Prevention value when inoculated with drug-resistant strain (%) [15]: 0% |
| O=C(Nc1cccc(Cl)c1)OCCCl [CEPC] | 0% | 0% | 0% | ++ | 0% |  |  |  |  | ++ | - |  |
| COC(=O)Nc1nc2ccccc2[nH]1 [Carbendazim, methyl benz-imidazol-2-ylcarbamate] | 0% | 100% | 0% |  | 100% |  |  |  |  |  |  |  |
| C#CC(C)OC(=O)Nc1cccc(Cl)c1 (centres unmarked) [Chlorbufam, 1-methyl-2-propynyl N-(3-chlorophenyl)carbamate] | 0% | 0% | 0% |  | 0% |  |  |  |  |  |  |  |
| CC(C)OC(=O)Nc1cccc(Cl)c1 [Chlorpropham, isopropyl N-(3-chlorophenyl)carbamate] | 0% | 0% | 0% |  | 0% |  |  |  |  |  |  |  |
| CCOc1c(C)cc(NC(=S)OCCF)cc1C [Compound No. 9] | 100% | 0% | 100% | - | 0% | 94% | 0% | 0% | 100% | - | - | Prevention value when inoculated with drug-sensitive strain (%) [8]: 0%; Prevention value when inoculated with drug-resistant strain (%) ([10]; 500 ppm active ingredient): 100%; Prevention value when inoculated with drug-sensitive strain (%) ([12]; 500 ppm active ingredient): 0%; Prevention value when inoculated with drug-resistant strain (%) [15]: 94% |
| CCOc1c(Cl)cc(NC(=S)OC)cc1COC [Compound No. 13] |  |  |  | - |  | 100% | 0% | 0% | 100% | - | - | Prevention value when inoculated with drug-resistant strain (%) ([10]; 200 ppm active ingredient): 97%; Prevention value when inoculated with drug-sensitive strain (%) ([12]; 200 ppm active ingredient): 0%; Prevention value (%) ([18]; rice seedlings of 3-leaf stage, spray, 1000 ppm active ingredient, 28°C for 3 days): 97% |
| CCOc1c(Cl)cc(NC(=S)OC(C)C)cc1COC [Compound No. 14, (3-chloro-4-ethoxy-5-methoxymethyl)thiocarbanilic acid O-isopropyl ester] |  |  | 100% | - | 0% | 100% | 0% | 0% | 100% | - | - | pest or weed control at 500 ppm [1]: 100%; pest or weed control at 500 ppm [2]: 0% |
| C=CCOC(=O)c1cc(NC(=S)OC)cc(COC)c1OCC [Compound No. 25, (3-methoxymethyl-4-ethoxy-5-allyloxycarbonyl)thiocarbanilic acid O-methyl ester] |  |  |  |  |  |  |  |  |  |  |  | Prevention value when inoculated with drug-sensitive strain (%) ([16]; 500 ppm active ingredient): 0%; Prevention value when inoculated with drug-resistant strain (%) ([17]; 500 ppm active ingredient): 100% |
| CCOc1cc(NC(=S)OC)cc(C=NOC)c1OCC [Compound No. 29, (3,4-diethoxy-5-methoxyiminomethyl)thiocarbanilic acid O-methyl ester] |  |  |  |  |  |  |  |  |  |  |  | Prevention value when inoculated with drug-sensitive strain (%) ([16]; 500 ppm active ingredient): 0%; Prevention value when inoculated with drug-resistant strain (%) ([17]; 500 ppm active ingredient): 100% |
| CCOP(=O)(Sc1ccccc1)Sc1ccccc1 [Edifenphos] |  |  |  |  |  |  |  |  |  |  |  | Prevention value (%) ([18]; in vivo): 97% |
| CC(C)OC(=O)Nc1ccccc1 [Propham, isopropyl N-phenylcarbamate] | 0% | 0% | 0% |  | 0% |  |  |  |  |  |  |  |
| COC(=O)Nc1ccc(Cl)c(Cl)c1 [Swep] |  |  |  | + |  |  |  |  |  | ++ | ++ |  |
| c1ccc2[nH]c(-c3cscn3)nc2c1 [Thiabendazole, 2-(4-thiazolyl)benzimidazole] |  |  |  |  |  |  |  | 100% | 0% |  |  |  |
| COC(=O)NC(=S)Nc1ccccc1NC(=S)NC(=O)OC [Thiophanate-methyl, 1,2-bis(3-methoxycarbonyl-2-thioureido)benzene] | 0% | 100% | 0% |  | 100% | 0% | 100% | 100% | 0% |  |  | Prevention value when inoculated with drug-sensitive strain (%) [8]: 100%; Prevention value when inoculated with drug-resistant strain (%) ([10]; 200 ppm active ingredient): 0%; Prevention value when inoculated with drug-sensitive strain (%) [11]: 100%; Prevention value when inoculated with drug-sensitive strain (%) ([12]; 200 ppm active ingredient): 100%; Prevention value when inoculated with drug-resistant strain (%) [14]: 0%; Prevention value when inoculated with drug-resistant strain (%) [15]: 0% |
